How the values were obtained:
[1] = target: T1, Glutamate receptor ionotropic, kainate 5 (Homo sapiens, UniProt Q16478); experiment: Binding affinity towards Kai-2 using [3]H-kainate as the radioligand
T1 sequence (Q16478 whole entry): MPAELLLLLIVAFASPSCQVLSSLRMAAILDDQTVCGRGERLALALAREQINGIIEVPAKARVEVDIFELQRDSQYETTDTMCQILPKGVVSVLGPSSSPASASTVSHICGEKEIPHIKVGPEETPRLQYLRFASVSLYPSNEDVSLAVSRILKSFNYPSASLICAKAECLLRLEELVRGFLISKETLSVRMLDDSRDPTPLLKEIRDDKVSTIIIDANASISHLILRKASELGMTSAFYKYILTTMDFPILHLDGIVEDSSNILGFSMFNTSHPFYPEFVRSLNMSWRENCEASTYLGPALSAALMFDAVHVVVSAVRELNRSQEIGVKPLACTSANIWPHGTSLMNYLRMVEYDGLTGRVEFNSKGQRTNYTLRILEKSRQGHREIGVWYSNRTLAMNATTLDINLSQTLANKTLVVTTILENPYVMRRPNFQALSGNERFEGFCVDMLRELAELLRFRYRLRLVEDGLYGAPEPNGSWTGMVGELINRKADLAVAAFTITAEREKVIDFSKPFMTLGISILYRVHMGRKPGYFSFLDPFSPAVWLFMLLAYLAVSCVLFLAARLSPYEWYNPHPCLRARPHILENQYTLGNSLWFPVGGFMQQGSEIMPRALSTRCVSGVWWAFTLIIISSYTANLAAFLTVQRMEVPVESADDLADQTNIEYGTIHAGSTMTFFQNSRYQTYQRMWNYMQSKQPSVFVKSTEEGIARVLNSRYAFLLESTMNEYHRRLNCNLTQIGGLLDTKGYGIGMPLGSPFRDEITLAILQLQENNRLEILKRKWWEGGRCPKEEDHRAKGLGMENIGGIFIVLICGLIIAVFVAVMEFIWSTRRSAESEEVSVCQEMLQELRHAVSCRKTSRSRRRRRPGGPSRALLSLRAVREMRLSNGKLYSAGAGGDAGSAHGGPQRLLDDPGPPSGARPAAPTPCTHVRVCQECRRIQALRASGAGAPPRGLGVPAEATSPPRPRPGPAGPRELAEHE

[2] = target: Glutamate receptor ionotropic, kainate 2 (Homo sapiens, UniProt Q13002); experiment: Binding affinity for human GluR6 expressed in HEK293 cells using [3]H-kainate; format: cell-based
Glutamate receptor ionotropic, kainate 2, sequence (Q13002 whole entry): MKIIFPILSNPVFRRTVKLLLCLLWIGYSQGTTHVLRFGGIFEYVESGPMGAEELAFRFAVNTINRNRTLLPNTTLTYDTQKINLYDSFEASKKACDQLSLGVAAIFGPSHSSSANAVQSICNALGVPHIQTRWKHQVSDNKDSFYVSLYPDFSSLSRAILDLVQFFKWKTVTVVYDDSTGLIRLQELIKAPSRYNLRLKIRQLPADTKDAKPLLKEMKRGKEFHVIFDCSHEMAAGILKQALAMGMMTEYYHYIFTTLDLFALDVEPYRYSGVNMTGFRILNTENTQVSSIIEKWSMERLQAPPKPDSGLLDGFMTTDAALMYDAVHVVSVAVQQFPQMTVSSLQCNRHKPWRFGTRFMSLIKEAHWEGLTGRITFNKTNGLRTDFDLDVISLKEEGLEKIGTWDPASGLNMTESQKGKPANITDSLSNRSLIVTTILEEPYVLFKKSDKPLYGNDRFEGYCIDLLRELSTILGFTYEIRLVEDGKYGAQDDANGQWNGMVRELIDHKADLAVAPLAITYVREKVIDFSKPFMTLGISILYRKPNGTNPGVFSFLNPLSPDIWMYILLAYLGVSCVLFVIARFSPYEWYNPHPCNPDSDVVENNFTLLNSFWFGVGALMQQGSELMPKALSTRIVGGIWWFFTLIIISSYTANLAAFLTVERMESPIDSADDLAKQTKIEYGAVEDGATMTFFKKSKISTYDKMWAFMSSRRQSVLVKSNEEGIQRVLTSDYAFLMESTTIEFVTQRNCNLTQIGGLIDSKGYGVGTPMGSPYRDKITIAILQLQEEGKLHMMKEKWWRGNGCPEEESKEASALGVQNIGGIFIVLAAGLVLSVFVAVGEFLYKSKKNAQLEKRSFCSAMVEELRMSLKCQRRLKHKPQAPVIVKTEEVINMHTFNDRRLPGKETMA

[3] = target: Glutamate receptor ionotropic, kainate 1 (Homo sapiens, UniProt P39086); experiment: Binding affinity towards cloned human GluR5 subunit stably expressed in cultured HEK293 cells using [3]H-kainate as radioligand; format: cell-based
Glutamate receptor ionotropic, kainate 1, sequence (P39086 whole entry): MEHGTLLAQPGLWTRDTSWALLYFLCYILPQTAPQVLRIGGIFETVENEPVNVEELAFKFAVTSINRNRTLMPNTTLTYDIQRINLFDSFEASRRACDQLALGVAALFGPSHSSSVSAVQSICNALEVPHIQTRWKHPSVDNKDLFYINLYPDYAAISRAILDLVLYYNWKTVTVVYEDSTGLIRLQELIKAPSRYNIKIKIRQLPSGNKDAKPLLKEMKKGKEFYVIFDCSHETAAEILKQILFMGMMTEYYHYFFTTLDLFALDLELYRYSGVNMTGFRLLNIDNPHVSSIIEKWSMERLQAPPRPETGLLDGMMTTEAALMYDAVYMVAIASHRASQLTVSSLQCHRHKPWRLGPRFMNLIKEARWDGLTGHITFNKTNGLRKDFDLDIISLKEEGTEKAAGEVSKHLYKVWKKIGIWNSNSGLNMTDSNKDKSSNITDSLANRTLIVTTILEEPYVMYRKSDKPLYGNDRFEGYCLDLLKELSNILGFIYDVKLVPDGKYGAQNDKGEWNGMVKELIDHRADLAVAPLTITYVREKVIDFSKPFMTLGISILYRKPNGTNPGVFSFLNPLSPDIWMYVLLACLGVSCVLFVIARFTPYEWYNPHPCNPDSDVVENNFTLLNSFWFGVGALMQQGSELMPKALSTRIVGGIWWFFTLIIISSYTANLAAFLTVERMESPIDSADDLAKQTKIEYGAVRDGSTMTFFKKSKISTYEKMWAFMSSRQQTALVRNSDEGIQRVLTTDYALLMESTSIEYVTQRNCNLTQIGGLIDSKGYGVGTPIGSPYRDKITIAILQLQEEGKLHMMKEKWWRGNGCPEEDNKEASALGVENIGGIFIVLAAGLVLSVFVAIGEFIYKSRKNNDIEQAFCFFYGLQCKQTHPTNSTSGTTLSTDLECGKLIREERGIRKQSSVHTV

[4] = target: T1, Glutamate receptor ionotropic, kainate 5; experiment: Binding affinity towards cloned human Kai-2 subunit stably expressed in cultured HEK293 cells using [3]H-kainate as radioligand; format: cell-based

Row | Compound | Ki [2] [µM] | Ki [4] [µM] | Ki [1] [µM] | Ki [3] [µM]
1 | NCc1ccn(-c2cc3c(cc2[N+](=O)[O-])[nH]c(=O)c(=O)n3CC(=O)O)c1 | 1.5 |  | 9.8 | 
2 | O=C(O)Cn1c(=O)c(=O)[nH]c2cc(C(F)(F)F)c(-n3ccc(CNC(=O)Nc4ccc([N+](=O)[O-])cc4)c3)cc21 | 0.61 |  | 12 | 0.1
3 | O=C(O)Cn1c(=O)c(=O)[nH]c2cc([N+](=O)[O-])c(-n3cccc3)cc21 | 3.9 | 1.3 |  | 
4 | O=C(O)Cn1c(=O)c(=O)[nH]c2cc([N+](=O)[O-])c(-n3ccc(C(=O)O)c3)cc21 | 5.8 |  | 11 | 1.4
5 | O=C(O)Cn1c(=O)c(=O)[nH]c2cc([N+](=O)[O-])c(-n3ccc(CN4CCCCC4)c3)cc21 | 28 | > 30 |  | 
6 | O=C(O)CCn1c(=O)c(=O)[nH]c2cc([N+](=O)[O-])c(-n3cccc3)cc21 | 1.2 | 25 |  | 2.4
7 | CN(Cc1ccccc1)Cc1ccn(-c2cc3c(cc2[N+](=O)[O-])[nH]c(=O)c(=O)n3CCC(=O)O)c1 | 23 | > 30 |  | 

More lines, main results first:

Row | Ki [2] [µM] | Ki [4] [µM] | Compound | Ki [1] [µM] | Ki [3] [µM]
8 | 3.6 | 18 | O=C(O)Cn1c(=O)c(=O)[nH]c2cc([N+](=O)[O-])c(-n3ccc(CN4CCC(c5ccccc5)CC4)c3)cc21 |  | 
9 | 6.2 | 20 | O=C(O)Cn1c(=O)c(=O)[nH]c2cc([N+](=O)[O-])c(-n3ccc(CNCCCc4ccccc4)c3)cc21 |  | 
10 | 4.1 | 20 | O=C(O)Cn1c(=O)c(=O)[nH]c2cc([N+](=O)[O-])c(-n3ccc(CN4CCN(Cc5ccccc5)CC4)c3)cc21 |  | 
11 | 1.4 | 25 | O=C(O)Cn1c(=O)c(=O)[nH]c2cc([N+](=O)[O-])c(-n3ccc(CN4CCN(CCc5ccccc5)CC4)c3)cc21 |  | 
